Measurements taken from PubChem BioAssay AID180 (DTP/NCI, 2004).
“And” between values parts separate entries of the source, which are not always exact repeats. Equal entries are not always repeated.

Test system: BDF1 mice, Adenocarcinoma 755 s.c., tumor weight T/C
Assay: NCI In Vivo Anticancer Drug Screen. Data for tumor model Adenocarcinoma 755 (subcutaneous) in B6D2F1 (BDF1) mice
Conditions: endpoint: mean tumor weight, higher = larger tumour
Summary of the method: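 Values express treated (T) relative to vehicle-dosed control (C) animals, based on survival or tumour size measured after compound treatment of mice bearing a transplanted tumour.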

## OCC1OC(n2cnc3c(=S)nc[nH]c32)C(O)C1O (stereo not drawn)
dose: 0.28 mg/kg/injection, schedule: Q01DX011 (ip), vehicle: carboxymethylcellulose (CMC)
  T/C: 47 % of control
dose: 0.5 mg/kg/injection, schedule: Q01DX011 (ip), vehicle: saline
  T/C: 31 % of control
dose: 0.56 mg/kg/injection, schedule: Q01DX011 (ip), vehicle: carboxymethylcellulose (CMC)
  T/C: 100 % of control
dose: 1.0 mg/kg/injection, schedule: Q01DX011 (oral), vehicle: methylcellulose (MC)
  T/C: 59 % of control
dose: 1.0 mg/kg/injection, schedule: Q01DX011 (oral), vehicle: saline
  T/C: 63 % of control
dose: 1.12 mg/kg/injection, schedule: Q01DX011 (ip), vehicle: carboxymethylcellulose (CMC)
  T/C: 30 % of control
dose: 1.25 mg/kg/injection, schedule: Q01DX011 (ip), vehicle: saline
  T/C: 26 % of control
dose: 1.5 mg/kg/injection, schedule: Q01DX011 (ip), vehicle: carboxymethylcellulose (CMC)
  T/C: 65 % of control
dose: 2.0 mg/kg/injection, schedule: Q01DX011 (oral), vehicle: methylcellulose (MC)
  T/C: 9 % of control
dose: 2.0 mg/kg/injection, schedule: Q01DX011 (oral), vehicle: saline
  T/C: 47 % of control
dose: 2.23 mg/kg/injection, schedule: Q01DX011 (ip), vehicle: carboxymethylcellulose (CMC)
  T/C: 4 % of control and 7 % of control
dose: 2.5 mg/kg/injection, schedule: Q01DX011 (ip), vehicle: carboxymethylcellulose (CMC)
  T/C: 34 % of control
dose: 3.0 mg/kg/injection, schedule: Q01DX011 (oral), vehicle: methylcellulose (MC)
  T/C: 14 % of control
dose: 3.75 mg/kg/injection, schedule: Q01DX011 (ip), vehicle: carboxymethylcellulose (CMC)
  T/C: 6 % of control and 12 % of control
dose: 4.0 mg/kg/injection, schedule: Q01DX011 (oral), vehicle: methylcellulose (MC)
  T/C: 4 % of control
dose: 4.0 mg/kg/injection, schedule: Q01DX011 (oral), vehicle: saline
  T/C: 9 % of control
dose: 4.47 mg/kg/injection, schedule: Q01DX011 (ip), vehicle: carboxymethylcellulose (CMC)
  T/C: 10 % of control
dose: 5.0 mg/kg/injection, schedule: Q01DX011 (oral), vehicle: methylcellulose (MC)
  T/C: 3 % of control
dose: 7.5 mg/kg/injection, schedule: Q01DX011 (ip), vehicle: carboxymethylcellulose (CMC)
  T/C: 5 % of control and 8 % of control
dose: 8.0 mg/kg/injection, schedule: Q01DX011 (oral), vehicle: saline
  T/C: 7 % of control
dose: 8.94 mg/kg/injection, schedule: Q01DX011 (ip), vehicle: carboxymethylcellulose (CMC)
  T/C: 5 % of control
dose: 10.0 mg/kg/injection, schedule: Q01DX006 (iv), vehicle: saline
  T/C: 2 % of control
dose: 10.0 mg/kg/injection, schedule: Q01DX011 (ip), vehicle: saline
  T/C: 4 % of control
dose: 10.0 mg/kg/injection, schedule: Q01DX011 (oral), vehicle: methylcellulose (MC)
  T/C: 2 % of control
dose: 10.0 mg/kg/injection, schedule: Q01DX011 (sc), vehicle: saline
  T/C: 4 % of control
dose: 10.0 mg/kg/injection, schedule: Q03DX004 (im), vehicle: saline
  T/C: 3 % of control
dose: 15.0 mg/kg/injection, schedule: Q01DX011 (ip), vehicle: carboxymethylcellulose (CMC)
  T/C: 2 % of control and 7 % of control
dose: 17.87 mg/kg/injection, schedule: Q01DX011 (ip), vehicle: carboxymethylcellulose (CMC)
  T/C: 6 % of control
dose: 18.75 mg/kg/injection, schedule: Q01DX011 (ip), vehicle: carboxymethylcellulose (CMC)
  T/C: 2 % of control
dose: 20.0 mg/kg/injection, schedule: Q01DX006 (iv), vehicle: saline
  T/C: 2 % of control
dose: 20.0 mg/kg/injection, schedule: Q01DX011 (ip), vehicle: saline
  T/C: 4 % of control
dose: 20.0 mg/kg/injection, schedule: Q01DX011 (sc), vehicle: saline
  T/C: 2 % of control
dose: 20.0 mg/kg/injection, schedule: Q03DX004 (im), vehicle: saline
  T/C: 2 % of control
dose: 25.0 mg/kg/injection, schedule: Q01DX011 (ip), vehicle: carboxymethylcellulose (CMC)
  T/C: 3 % of control
dose: 35.75 mg/kg/injection, schedule: Q01DX011 (ip), vehicle: carboxymethylcellulose (CMC)
  T/C: 5 % of control
dose: 37.5 mg/kg/injection, schedule: Q01DX011 (ip), vehicle: carboxymethylcellulose (CMC)
  T/C: 2 % of control and 5 % of control
dose: 40.0 mg/kg/injection, schedule: Q01DX006 (iv), vehicle: saline
  T/C: 3 % of control
dose: 40.0 mg/kg/injection, schedule: Q01DX010 (oral), vehicle: saline
  T/C: 3 % of control
dose: 40.0 mg/kg/injection, schedule: Q01DX011 (ip), vehicle: saline
  T/C: 3 % of control
dose: 40.0 mg/kg/injection, schedule: Q01DX011 (sc), vehicle: saline
  T/C: 4 % of control
dose: 40.0 mg/kg/injection, schedule: Q03DX004 (im), vehicle: saline
  T/C: 1 % of control
dose: 57.0 mg/kg/injection, schedule: Q01DX011 (ip), vehicle: carboxymethylcellulose (CMC)
  T/C: 9 % of control
dose: 71.5 mg/kg/injection, schedule: Q01DX011 (ip), vehicle: carboxymethylcellulose (CMC)
  T/C: 5 % of control
dose: 73.0 mg/kg/injection, schedule: Q01DX011 (ip), vehicle: carboxymethylcellulose (CMC)
  T/C: 4 % of control
dose: 75.0 mg/kg/injection, schedule: Q01DX011 (ip), vehicle: carboxymethylcellulose (CMC)
  T/C: 4 % of control
dose: 80.0 mg/kg/injection, schedule: Q01DX006 (iv), vehicle: saline
  T/C: 3 % of control
dose: 80.0 mg/kg/injection, schedule: Q01DX011 (ip), vehicle: alkali diluted with saline
  T/C: 4 % of control
dose: 80.0 mg/kg/injection, schedule: Q01DX011 (ip), vehicle: saline
  T/C: 5 % of control
dose: 80.0 mg/kg/injection, schedule: Q01DX011 (sc), vehicle: saline
  T/C: 4 % of control
dose: 80.0 mg/kg/injection, schedule: Q03DX004 (im), vehicle: saline
  T/C: 2 % of control
dose: 115.0 mg/kg/injection, schedule: Q01DX011 (ip), vehicle: carboxymethylcellulose (CMC)
  T/C: 3 % of control
dose: 120.0 mg/kg/injection, schedule: Q01DX011 (ip), vehicle: alkali diluted with saline
  T/C: 2 % of control and 3 % of control
dose: 143.0 mg/kg/injection, schedule: Q01DX011 (ip), vehicle: carboxymethylcellulose (CMC)
  T/C: 5 % of control
dose: 146.0 mg/kg/injection, schedule: Q01DX011 (ip), vehicle: carboxymethylcellulose (CMC)
  T/C: 6 % of control
dose: 150.0 mg/kg/injection, schedule: Q01DX011 (ip), vehicle: carboxymethylcellulose (CMC)
  T/C: 4 % of control
dose: 160.0 mg/kg/injection, schedule: Q01DX011 (ip), vehicle: alkali diluted with saline
  T/C: 3 % of control
dose: 200.0 mg/kg/injection, schedule: Q01DX011 (ip), vehicle: carboxymethylcellulose (CMC)
  T/C: 6 % of control
dose: 225.0 mg/kg/injection, schedule: Q01DX011 (ip), vehicle: carboxymethylcellulose (CMC)
  T/C: 6 % of control
dose: 231.0 mg/kg/injection, schedule: Q01DX011 (ip), vehicle: carboxymethylcellulose (CMC)
  T/C: 5 % of control
dose: 250.0 mg/kg/injection, schedule: Q01DX011 (ip), vehicle: carboxymethylcellulose (CMC)
  T/C: 3 % of control
dose: 300.0 mg/kg/injection, schedule: Q01DX011 (ip), vehicle: carboxymethylcellulose (CMC)
  T/C: 7 % of control
dose: 320.0 mg/kg/injection, schedule: Q01DX001 (ip), vehicle: alkali diluted with saline
  T/C: 5 % of control and 7 % of control
dose: 320.0 mg/kg/injection, schedule: Q01DX001 (oral), vehicle: alkali diluted with saline
  T/C: 18 % of control
dose: 320.0 mg/kg/injection, schedule: Q03DX004 (ip), vehicle: alkali diluted with saline
  T/C: 1 % of control and 5 % of control
dose: 320.0 mg/kg/injection, schedule: Q03DX004 (oral), vehicle: alkali diluted with saline
  T/C: 2 % of control
dose: 320.0 mg/kg/injection, schedule: Q07DX002 (ip), vehicle: alkali diluted with saline
  T/C: 3 % of control and 7 % of control
dose: 320.0 mg/kg/injection, schedule: Q07DX002 (oral), vehicle: alkali diluted with saline
  T/C: 4 % of control
dose: 480.0 mg/kg/injection, schedule: Q01DX001 (ip), vehicle: alkali diluted with saline
  T/C: 4 % of control and 9 % of control
dose: 480.0 mg/kg/injection, schedule: Q01DX001 (oral), vehicle: alkali diluted with saline
  T/C: 8 % of control
dose: 480.0 mg/kg/injection, schedule: Q03DX004 (ip), vehicle: alkali diluted with saline
  T/C: 2 % of control and 3 % of control
dose: 480.0 mg/kg/injection, schedule: Q07DX002 (ip), vehicle: alkali diluted with saline
  T/C: 6 % of control
dose: 480.0 mg/kg/injection, schedule: Q07DX002 (oral), vehicle: alkali diluted with saline
  T/C: 7 % of control
dose: 640.0 mg/kg/injection, schedule: Q01DX001 (ip), vehicle: alkali diluted with saline
  T/C: 5 % of control
dose: 640.0 mg/kg/injection, schedule: Q01DX001 (oral), vehicle: alkali diluted with saline
  T/C: 9 % of control
dose: 640.0 mg/kg/injection, schedule: Q07DX002 (ip), vehicle: alkali diluted with saline
  T/C: 4 % of control
dose: 640.0 mg/kg/injection, schedule: Q07DX002 (oral), vehicle: alkali diluted with saline
  T/C: 3 % of control
dose: 960.0 mg/kg/injection, schedule: Q01DX001 (oral), vehicle: alkali diluted with saline
  T/C: 9 % of control
dose: 960.0 mg/kg/injection, schedule: Q07DX002 (oral), vehicle: alkali diluted with saline
  T/C: 6 % of control
